Laboratory results: patent publication US10792373B2, “Drug delivery polymers and uses thereof” (priority 2016, dated 2020)

Experiments:
[1] = system: Eμ-Myc p19Arf−/− lymphoma cells; assay: RNAi signature assay (GFP-tagged shRNAs, flow cytometry); type: cell-based, murine; conditions: drug dosed to kill 80-90% of cells at 48 h; GFP positivity at 72 h
Protocol: RNAi signatures were performed as described previously^2-4. Briefly, Eμ-Myc p19^Arf−/− lymphoma cells were infected at about 30% with GFP-tagged shRNAs. The cells were then treated with drug to kill 80-90% of cells as judged by propidium iodide exclusion via flow cytometry at 48 h. At 72 h, GFP positivity was assessed via flow cytometry. Constrained linear regression was performed in Stata using least-squares fit with individual drug treatments as the predictor variables and the combination signatures as the response variables. The linear regression was constrained such that the sum of the predictor variables had to equal one and none could be negative.
(§1) Eμ-Myc p19Arf−/− lymphoma cells were infected at about 30% with GFP-tagged shRNAs. The cells were then treated with drug to kill 80-90% of cells as judged by propidium iodide exclusion via flow cytometry at 48 h. At 72 h GFP positivity was assessed via flow cytometry. Using the RNAi signature approach, the free drug, prodrug, single-drug-conjugated BASPs, and multi-drug conjugated BASPs illustrated in FIGS. 9A-9C were characterized. […] Next, the RNAi signatures for each of the free drugs and their corresponding prodrug monomers and BASPs were plotted (FIG. 20E) using principal component analysis (PCA). PCA is a means of representing the variance in a multi-dimensional dataset in fewer dimensions. […] One hypothesis that may explain the observed difference between the cisplatin and oxaliplatin prodrug mechanisms is related to the ligand lability of these species. Inside the cell, where the concentration of chloride ions is much lower than in the extracellular milieu (2 to 30 mM for the former compared to ˜100 mM for the latter), the weakly bound chloride ligands of free cisplatin are replaced with aquo ligands. This diaquo species induces cytotoxic inter- or intra-strand DNA cross-links. […] Additionally, utilizing a CisPt-DNA adduct specific antibody, the genomic DNA isolated from murine lymphoma cells after 8 h of drug treatment was analyzed. […]

Top1 = molecular target: T1, Top1 (Mus musculus, UniProt Q04750); assay: GFP competition assay with validated Top1 shRNA; type: cell-based, murine
T1 construct: Eμ-Myc p19Arf−/− lymphoma cells were infected at about 30% with GFP-tagged shRNAs; endogenous in cells; host or cells: Eμ-Myc p19Arf-/- murine lymphoma cells
T1 sequence (Q04750 1-767): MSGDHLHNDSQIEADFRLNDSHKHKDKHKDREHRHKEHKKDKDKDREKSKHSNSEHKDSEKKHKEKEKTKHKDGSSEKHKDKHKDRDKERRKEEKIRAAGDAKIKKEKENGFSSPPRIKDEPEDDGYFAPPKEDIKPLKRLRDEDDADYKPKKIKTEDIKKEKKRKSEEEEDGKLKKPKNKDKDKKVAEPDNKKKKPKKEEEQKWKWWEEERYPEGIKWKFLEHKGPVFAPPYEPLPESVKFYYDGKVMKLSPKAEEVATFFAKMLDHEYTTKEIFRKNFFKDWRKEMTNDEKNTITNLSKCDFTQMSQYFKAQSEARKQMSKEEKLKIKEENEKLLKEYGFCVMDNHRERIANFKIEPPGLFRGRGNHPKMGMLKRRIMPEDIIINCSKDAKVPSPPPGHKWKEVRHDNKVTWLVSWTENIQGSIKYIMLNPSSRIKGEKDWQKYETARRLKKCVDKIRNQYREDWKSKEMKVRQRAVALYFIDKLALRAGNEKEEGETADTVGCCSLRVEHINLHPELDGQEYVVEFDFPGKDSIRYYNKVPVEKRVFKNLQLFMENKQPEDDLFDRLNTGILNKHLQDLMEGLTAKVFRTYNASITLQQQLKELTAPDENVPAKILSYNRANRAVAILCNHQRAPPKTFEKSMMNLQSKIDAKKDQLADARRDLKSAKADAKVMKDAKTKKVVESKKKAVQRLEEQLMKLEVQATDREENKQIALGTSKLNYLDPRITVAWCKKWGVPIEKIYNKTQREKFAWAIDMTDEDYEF
Protocol: (§2) Eμ-Myc p19Arf−/− lymphoma cells were infected at about 30% with GFP-tagged shRNAs. The cells were then treated with drug to kill 80-90% of cells as judged by propidium iodide exclusion via flow cytometry at 48 h. At 72 h GFP positivity was assessed via flow cytometry. Using the RNAi signature approach, the free drug, prodrug, single-drug-conjugated BASPs, and multi-drug conjugated BASPs illustrated in FIGS. 9A-9C were characterized. […] Next, the RNAi signatures for each of the free drugs and their corresponding prodrug monomers and BASPs were plotted (FIG. 20E) using principal component analysis (PCA). PCA is a means of representing the variance in a multi-dimensional dataset in fewer dimensions. […] Inside the cell, where the concentration of chloride ions is much lower than in the extracellular milieu (2 to 30 mM for the former compared to ˜100 mM for the latter), the weakly bound chloride ligands of free cisplatin are replaced with aquo ligands. This diaquo species induces cytotoxic inter- or intra-strand DNA cross-links.

Top2A = molecular target: T2, Top2A (Mus musculus, UniProt Q01320); assay: GFP competition assay with validated Top2A shRNA; type: cell-based, murine
T2 construct: Eμ-Myc p19Arf−/− lymphoma cells were infected at about 30% with GFP-tagged shRNAs; endogenous in cells; host or cells: Eμ-Myc p19Arf-/- murine lymphoma cells
Protocol: as §2

[2] = system: genomic DNA isolated from murine lymphoma cells; assay: Cisplatin-DNA adduct detection with a CisPt-DNA adduct specific antibody; type: cell-based; conditions: after 8 h of drug treatment
Protocol: as §1

T2 sequence (Q01320 whole entry): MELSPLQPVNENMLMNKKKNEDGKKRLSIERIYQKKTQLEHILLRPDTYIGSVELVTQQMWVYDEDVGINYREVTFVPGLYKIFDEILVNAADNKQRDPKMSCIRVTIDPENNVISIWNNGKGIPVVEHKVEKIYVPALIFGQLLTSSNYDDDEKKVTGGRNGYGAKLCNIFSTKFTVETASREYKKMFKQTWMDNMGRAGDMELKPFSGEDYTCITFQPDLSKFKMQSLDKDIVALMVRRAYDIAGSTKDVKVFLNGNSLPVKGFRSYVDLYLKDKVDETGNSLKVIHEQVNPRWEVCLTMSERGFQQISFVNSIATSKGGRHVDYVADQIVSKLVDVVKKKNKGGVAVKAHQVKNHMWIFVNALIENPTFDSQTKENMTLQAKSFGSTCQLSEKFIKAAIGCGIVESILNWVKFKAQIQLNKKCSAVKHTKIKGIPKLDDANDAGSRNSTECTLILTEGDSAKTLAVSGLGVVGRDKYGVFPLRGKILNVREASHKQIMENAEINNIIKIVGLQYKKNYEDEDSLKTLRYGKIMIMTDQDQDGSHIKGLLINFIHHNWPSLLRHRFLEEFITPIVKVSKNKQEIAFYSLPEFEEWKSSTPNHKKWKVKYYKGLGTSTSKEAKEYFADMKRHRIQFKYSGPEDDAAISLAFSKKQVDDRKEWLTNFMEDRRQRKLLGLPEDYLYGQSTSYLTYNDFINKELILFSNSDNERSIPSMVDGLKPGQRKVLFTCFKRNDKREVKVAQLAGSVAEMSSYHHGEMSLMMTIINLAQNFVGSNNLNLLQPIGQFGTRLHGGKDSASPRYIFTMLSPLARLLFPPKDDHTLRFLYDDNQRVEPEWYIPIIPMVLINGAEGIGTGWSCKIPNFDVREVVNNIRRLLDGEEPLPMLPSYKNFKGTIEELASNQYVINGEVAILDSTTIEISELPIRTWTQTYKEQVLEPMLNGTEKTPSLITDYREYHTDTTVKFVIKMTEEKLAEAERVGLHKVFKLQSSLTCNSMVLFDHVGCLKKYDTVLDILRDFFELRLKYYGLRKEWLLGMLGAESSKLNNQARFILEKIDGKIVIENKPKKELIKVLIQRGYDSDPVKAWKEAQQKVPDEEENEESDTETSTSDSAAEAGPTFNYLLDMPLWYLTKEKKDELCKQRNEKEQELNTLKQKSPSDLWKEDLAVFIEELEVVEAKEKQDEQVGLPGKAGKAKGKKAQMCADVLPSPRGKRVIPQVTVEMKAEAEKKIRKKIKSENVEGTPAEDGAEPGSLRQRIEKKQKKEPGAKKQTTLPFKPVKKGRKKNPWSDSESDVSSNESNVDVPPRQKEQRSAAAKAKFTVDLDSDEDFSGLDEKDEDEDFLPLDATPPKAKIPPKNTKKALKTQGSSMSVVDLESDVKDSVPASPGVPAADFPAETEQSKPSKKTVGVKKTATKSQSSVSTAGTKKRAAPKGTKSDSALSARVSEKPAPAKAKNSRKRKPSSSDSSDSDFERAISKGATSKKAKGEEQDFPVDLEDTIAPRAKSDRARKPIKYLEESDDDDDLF

| SMILES | RNAi signature classification (mechanism of action) [1] | response of cells with knockdown of Top1 (Top1) | response of cells harboring the Top2A shRNA (Top2A) | Cisplatin-DNA adducts [2] |
| --- | --- | --- | --- | --- |
| CC[C@@]1(O)C(=O)OCc2c1cc1n(c2=O)Cc2cc3ccccc3nc2-1 [CPT, camptothecin] | Topoisomerase I (Top1) poisons | resistance | sensitivity | – |
| N.N.[Cl][Pt][Cl] [CisPt, cisplatin] | – | – | – | detected |
| COc1cccc2c1C(=O)c1c(O)c3c(c(O)c1C2=O)C[C@@](O)(C(=O)CO)C[C@@H]3O[C@H]1C[C@H](N)[C@H](O)[C@H](C)O1 [DOX, doxorubicin] | Topoisomerase II (Top2) poison | sensitivity | resistant | – |
| O=C1[O][Pt]2([NH][C@@H]3CCCC[C@H]3[NH]2)[O]C1=O [OxPt, oxaliplatin] | transcription/translation inhibitors | – | – | – |
